Data taken from PubChem BioAssay (NCI).
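Compound exposure: 48 hours, 5 concentrations, 96-well plates. The concentration for full growth arrest is given as TGI.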

Legend:
Test in all cases: NCI tumour cell line growth inhibition, 48 h
[1] = test system: 786-0 renal
[2] = test system: SNB-75 CNS
[3] = test system: PC-3 prostate
[4] = test system: MALME-3M melanoma
[5] = test system: HOP-62 NSCLC
[6] = test system: CCRF-CEM leukemia
[7] = test system: HCT-116 colon
[8] = test system: KM12 colon
[9] = test system: MDA-N
[10] = test system: RPMI-8226 leukemia
[11] = test system: SF-268 CNS
[12] = test system: A498 renal
[13] = test system: MDA-MB-231 breast
[14] = test system: NCI-H226 lung
[15] = test system: TK-10 renal
[16] = test system: A549 NSCLC
[17] = test system: HL-60(TB) leukemia
[18] = test system: MOLT-4 leukemia
[19] = test system: MDA-MB-435
[20] = test system: BT-549 breast
[21] = test system: OVCAR-8 ovarian
[22] = test system: HT29 colon
[23] = test system: SK-MEL-2 melanoma
[24] = test system: SF-295 CNS
[25] = test system: CAKI-1 renal
[26] = test system: OVCAR-4 ovarian
[27] = test system: NCI-H522 lung
[28] = test system: HCT-15 colon
[29] = test system: HS 578T breast
[30] = test system: COLO 205 colon
[31] = test system: HOP-92 NSCLC
[32] = test system: OVCAR-5 ovarian
[33] = test system: SNB-19 CNS
[34] = test system: UO-31 renal
[35] = test system: T-47D breast
[36] = test system: RXF 393 renal
[37] = test system: SW-620 colon
[38] = test system: SK-MEL-5 melanoma
[39] = test system: EKVX NSCLC
[40] = test system: SF-539 CNS
[41] = test system: SR leukemia
[42] = test system: IGROV1 ovarian
[43] = test system: M14 melanoma
[44] = test system: LOX IMVI melanoma
[45] = test system: U251 CNS
[46] = test system: NCI-H460 lung
[47] = test system: K-562 leukemia
[48] = test system: ACHN renal
[49] = test system: UACC-257 melanoma
[50] = test system: SK-OV-3 ovarian
[51] = test system: NCI/ADR-RES ovarian
[52] = test system: OVCAR-3 ovarian
[53] = test system: MCF7 breast
[54] = test system: NCI-H23 lung
[55] = test system: UACC-62 melanoma
[56] = test system: DU-145 prostate
[57] = test system: SN12C renal
[58] = test system: SK-MEL-28 melanoma

Measured: TGI

CCOC(=O)c1nc2ccc(C(F)(F)F)cc2nc1NCc1ccc(Cl)c(Cl)c1
57.5 µM: [25]
46.7 µM: [1]
52.1 µM: [5]
33.5 µM: [27]
56.7 µM: [19]
75.9 µM: [3]
99.1 µM: [4]
90.9 µM: [22]
80.7 µM: [29]
81.5 µM: [36]
40.4 µM: [31]
48.6 µM: [26]
92.1 µM: [12]
55.4 µM: [42]
66.2 µM: [52]
83.2 µM: [33]
51.3 µM: [2]
69.9 µM: [24]
68 µM: [48]
not listed: [56] | [57] | [58]
> 100 µM: all other assays above

NC1CC(=O)c2cc(Cl)sc21 (stereo not drawn)
not listed: [10] | [12] | [18] | [41] | [53]
> 100 µM: all other assays above
